These are literature values, as cited in EP2143418A1, “Antiperspirant compositions” (Unilever PLC, priority 2008, dated 2010).

Molecules are shown by their SMILES.

This data set relates to Staphylococcus epidermidis. As to conditions: 80% or greater reduction in growth of inoculum, 16 to 24 hours at 37°C.

Turning to `CC(C)=CCCC(C)=CCCC(C)=CCO` [farnesol, 3,7,11-trimethyldodeca-2,6,10-trienol], the MIC entry is reported as “ca. 25 µg.ml^-1”.

Consider `CCO` [ethanol], for which the MIC result was “greater than 1 mg.ml^-1”.

On to `Oc1cc(Cl)ccc1Oc1ccc(Cl)cc1Cl` [triclosan, 2',4,4'-trichloro,2-hydroxy-diphenyl ether], for which the minimum inhibitory concentration (MIC) was 0.01 to 10 µg/mL.
